Test results from patent publication US10562912B2 (C&C Research Laboratories, priority 2013, dated 2020).

Columns and labels:
Type in all cases: cell-based
STAT3 = target: T1, STAT3 (Homo sapiens, UniProt P40763); experiment: STAT3 reporter gene assay (luciferase), LNCaP stable cell line (pSTAT3-TA-luc), IL-6 stimulation
T1 construct: plasmid pSTAT3-TA-luc), which contains a stably operating STAT3 promoter; endogenous in cells
Outline: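 LNCaP cells stably carrying pSTAT3-TA-luc, in RPMI1640 with 3% DCC-FBS, were treated with compound and then stimulated with 10 ng/mL IL-6 for 24–48 h at 37 °C. Luciferase activity was measured in lysates. A parallel plate measured viability by CellTiter-Glo, with stimulated 0.1% DMSO wells as the positive control.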

DU-145 = experiment: Cell growth inhibition assay, prostate cancer cell line DU-145; details: Homo sapiens, DU-145 prostate cancer cell line
Outline: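 Readout was CellTiter-Glo luminescence after 72–96 h of compound exposure at 37 °C, 5% CO2. Plating density was 3,000 cells/well for DU-145 and HCT116 and 5,000 cells/well for SW626. Controls were 0.1% DMSO wells and medium-only wells.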

LNCaP = experiment: Cell growth inhibition assay, prostate cancer cell line LNCaP (medium with 10 ng/mL IL-6); details: Homo sapiens, medium supplemented with 10 ng/mL of IL-6, 10,000 cells/well

T1 sequence (P40763 whole entry): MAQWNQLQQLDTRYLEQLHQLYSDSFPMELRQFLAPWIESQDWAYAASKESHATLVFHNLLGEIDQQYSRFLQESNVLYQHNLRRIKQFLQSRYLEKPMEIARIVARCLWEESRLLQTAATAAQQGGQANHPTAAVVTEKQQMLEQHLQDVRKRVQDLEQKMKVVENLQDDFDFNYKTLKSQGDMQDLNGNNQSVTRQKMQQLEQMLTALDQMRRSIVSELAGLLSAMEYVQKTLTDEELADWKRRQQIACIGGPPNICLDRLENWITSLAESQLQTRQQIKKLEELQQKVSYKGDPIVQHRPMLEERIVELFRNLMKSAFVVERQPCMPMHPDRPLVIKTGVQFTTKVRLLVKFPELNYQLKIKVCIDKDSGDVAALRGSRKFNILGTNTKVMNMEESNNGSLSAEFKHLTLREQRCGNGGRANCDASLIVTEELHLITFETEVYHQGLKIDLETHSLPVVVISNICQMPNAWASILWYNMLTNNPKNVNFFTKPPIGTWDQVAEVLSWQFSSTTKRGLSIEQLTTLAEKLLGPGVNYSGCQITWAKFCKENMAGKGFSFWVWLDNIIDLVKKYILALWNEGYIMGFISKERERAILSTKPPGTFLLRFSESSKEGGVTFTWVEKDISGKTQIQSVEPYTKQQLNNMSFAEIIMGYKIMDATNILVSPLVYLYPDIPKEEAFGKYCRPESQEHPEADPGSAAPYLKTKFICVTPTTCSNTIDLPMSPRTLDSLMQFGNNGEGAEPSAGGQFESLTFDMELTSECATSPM

| SMILES | IC50 (STAT3) [µM] | IC50 (DU-145) [µM] | IC50 (LNCaP) [µM] |
| --- | --- | --- | --- |
| CC(C)(c1cc(Cl)cc(NC(=O)c2cc3cc(NS(C)(=O)=O)ccc3s2)c1)c1cc(OC2COC2)cc(OC(F)(F)F)c1 [Example 76, N-(3-chloro-5-(2-(3-(oxetan-3-yloxy)-5-(trifluoromethoxy)phenyl)propan-2-yl)phenyl)-5-(methylsulfonamido)benzo[b]thiophene-2-carboxamide] | 3 | 0.34 | 0.23 |
| Cc1ccc(C(C)(C)c2cc(Cl)cc(NC(=O)c3cc4cc(NS(C)(=O)=O)c(Cl)cc4s3)c2)s1 [Example 179, 6-chloro-N-(3-chloro-5-(2-(5-methylthiophen-2-yl)propan-2-yl)phenyl)-5-(methylsulfonamido)benzo[b]thiophene-2-carboxamide] | 0.004 | 0.004 | 0.007 |
| CC(C)c1ccc(C(C)(C)c2cc(Cl)cc(NC(=O)c3cc4cc(NS(C)(=O)=O)c(Cl)cc4s3)c2)s1 [Example 180, 6-chloro-N-(3-chloro-5-(2-(5-isopropylthiophen-2-yl)propan-2-yl)phenyl)-5-(methylsulfonamido)benzo[b]thiophene-2-carboxamide] | 0.01 | < 0.005 | < 0.005 |
| CC(C)(c1cc(Cl)cc(NC(=O)c2cc3cc(NS(C)(=O)=O)c(Cl)cc3s2)c1)c1ccc(Cl)s1 [Example 175, 6-chloro-N-(3-chloro-5-(2-(5-chlorothiophen-2-yl)propan-2-yl)phenyl)-5-(methylsulfonamido)benzo[b]thiophene-2-carboxamide] | 0.007 | 0.005 | 0.016 |
| CC(C)Oc1cc(CN2CCOCC2)cc(C(C)(C)c2cc(Cl)cc(NC(=O)c3cc4cc(NS(C)(=O)=O)ccc4s3)c2)c1 [Example 126, N-(3-chloro-5-(2-(3-isopropoxy-5-(morpholinomethyl)phenyl)propan-2-yl)phenyl)-5-(methylsulfonamido)benzo[b]thiophene-2-carboxamide] | 0.1 | 0.11 | 0.11 |
| CC(C)(c1ccc(Cl)cc1)c1cc(Cl)cc(NC(=O)c2cc3cc(NS(=O)(=O)CCO)c(Cl)cc3s2)c1 [Example 188, 6-chloro-N-(3-chloro-5-(2-(4-chlorophenyl)propan-2-yl)phenyl)-5-((2-hydroxyethyl)sulfonamido)benzo[b]thiophene-2-carboxamide] | 0.054 | 0.026 | 0.056 |
| CC(C)Oc1cc(OC(F)(F)F)cc(C(C)(C)c2cc(Cl)cc(NC(=O)c3cn4cc(NS(C)(=O)=O)ccc4n3)c2)c1 [Example 74, N-(3-chloro-5-(2-(3-isopropoxy-5-(trifluoromethoxy)phenyl)propan-2-yl)phenyl)-6-(methylsulfonamido)imidazo[1,2-a]pyridine-2-carboxamide] | 2.7 | 2.6 | 6.6 |
| CC(C)Oc1cc(CN2CCN(c3noc(C(C)C)n3)CC2)cc(C(C)(C)c2cc(F)cc(NC(=O)c3cc4cc(NS(C)(=O)=O)ccc4s3)c2)c1 [Example 136, N-(3-fluoro-5-(2-(3-isopropoxy-5-((4-(5-isopropyl-1,2,4-oxadiazol-3-yl)piperazin-1-yl)methyl)phenyl)propan-2-yl)phenyl)-5-(methylsulfonamido)benzo[b]thiophene-2-carboxamide] | 0.059 | 0.051 | 0.38 |
| CC(C)Oc1cc(OC(F)(F)F)cc(C(C)(C)c2cc(Cl)cc(NC(=O)c3cc4cc(OP(=O)(O)O)ccc4s3)c2)c1 [Example 193, 2-((3-chloro-5-(2-(3-isopropoxy-5-(trifluoromethoxy)phenyl)propan-2-yl)phenyl)carbamoyl)benzo[b]thiophen-5-yl dihydrogen phosphate] | 0.38 | 0.39 | 0.99 |
| CC(C)Oc1cc(CN2CCN(C(=O)N(C)C)CC2)cc(C(C)(C)c2cc(Cl)cc(NC(=O)c3cc4cc(NS(C)(=O)=O)ccc4s3)c2)c1 [Example 133, 4-(3-(2-(3-chloro-5-(5-(methylsulfonamido)benzo[b]thiophene-2-carboxamido)phenyl)propan-2-yl)-5-isopropoxybenzyl)-N,N-dimethylpiperazine-1-carboxamide] | 0.15 | 0.22 | 0.7 |
| CC(C)(c1cccc(Cn2ccnc2)c1)c1cc(Br)cc(NC(=O)c2cc3cc(NS(C)(=O)=O)ccc3s2)c1 [Example 120, N-(3-(2-(3-((1H-imidazol-1-yl)methyl)phenyl)propan-2-yl)-5-bromophenyl)-5-(methylsulfonamido)benzo[b]thiophene-2-carboxamide] | 0.66 | 2.2 | 3.6 |
| COc1cc(OC(F)(F)F)cc(C(C)(C)c2cc(Br)cc(NC(=O)c3cc4cc(NS(C)(=O)=O)ncc4[nH]3)c2)c1 [Example 99, N-(3-bromo-5-(2-(3-methoxy-5-(trifluoromethoxy)phenyl)propan-2-yl)phenyl)-5-(methylsulfonamido)-1H-pyrrolo[2,3-c]pyridine-2-carboxamide 2,2,2-trifluoroacetate] | 0.22 | 0.8 | 1.5 |
| COCCS(=O)(=O)Nc1cc2cc(C(=O)Nc3cc(Cl)cc(C(C)(C)c4ccc(Cl)cc4)c3)sc2cc1Cl [Example 185, 6-chloro-N-(3-chloro-5-(2-(4-chlorophenyl)propan-2-yl)phenyl)-5-((2-methoxyethyl)sulfonamido)benzo[b]thiophene-2-carboxamide] | 0.007 | 0.007 | 0.072 |

Other lines, results leading:

| IC50 (STAT3) [µM] | IC50 (DU-145) [µM] | IC50 (LNCaP) [µM] | SMILES |
| --- | --- | --- | --- |
| 0.23 | 0.16 | 0.35 | CS(=O)(=O)Nc1ccc2sc(C(=O)Nc3cc(Cl)cc(Oc4cc(F)ccc4F)c3)cc2c1 [Example 448, N-(3-chloro-5-(2,5-difluorophenoxy)phenyl)-5-(methylsulfonamido)benzo[b]thiophene-2-carboxamide] |
| 0.1 | 0.033 | 0.091 | CC(C)(c1cc(Cl)cc(NC(=O)c2cc3cc(NS(C)(=O)=O)ccc3s2)c1)c1ccc(Cl)s1 [Example 174, N-(3-chloro-5-(2-(5-chlorothiophen-2-yl)propan-2-yl)phenyl)-5-(methylsulfonamido)benzo[b]thiophene-2-carboxamide] |
| 0.92 | 0.43 | > 1.1 | CS(=O)(=O)Nc1ccc2sc(C(=O)Nc3cc(Cl)cc(-c4cnccn4)c3)cc2c1 [Example 338, N-(3-chloro-5-(pyrazin-2-yl)phenyl)-5-(methylsulfonamido)benzo[b]thiophene-2-carboxamide] |
| 0.021 | 0.013 | 0.036 | CN(c1cc(Cl)cc(NC(=O)c2cc3cc(NS(C)(=O)=O)c(Cl)cc3s2)c1)c1ccc(F)cc1F [Example 442, 6-chloro-N-(3-chloro-5-((2,4-difluorophenyl)(methyl)amino)phenyl)-5-(methylsulfonamido)benzo[b]thiophene-2-carboxamide] |
| 0.27 | 0.43 | 0.94 | CS(=O)(=O)Nc1ccc2sc(C(=O)Nc3cc(-c4ccc(F)cc4F)cc(Cl)n3)cc2c1 [Example 337, N-(6-chloro-4-(2,4-difluorophenyl)pyridin-2-yl)-5-(methylsulfonamido)benzo[b]thiophene-2-carboxamide] |
| 0.048 | 0.022 | 0.059 | COc1cc(Cl)cc(Oc2cc(Cl)cc(NC(=O)c3cc4cc(NS(C)(=O)=O)c(Cl)cc4s3)c2)c1 [Example 474, 6-chloro-N-(3-chloro-5-(3-chloro-5-methoxyphenoxy)phenyl)-5-(methylsulfonamido)benzo[b]thiophene-2-carboxamide] |
| 0.14 | 0.19 | 0.51 | CS(=O)(=O)Nc1ccc2sc(C(=O)Nc3cc(Cl)cc(Oc4ccc(C#N)cc4)c3)cc2c1 [Example 451, N-(3-chloro-5-(4-cyanophenoxy)phenyl)-5-(methylsulfonamido)benzo[b]thiophene-2-carboxamide] |
| 0.22 | 0.048 | 0.039 | CS(=O)(=O)Nc1ccc2sc(C(=O)Nc3cc(Cl)cc(Oc4cc(Cl)cc(OC(F)(F)F)c4)c3)cc2c1 [Example 467, N-(3-chloro-5-(3-chloro-5-(trifluoromethoxy)phenoxy)phenyl)-5-(methylsulfonamido)benzo[b]thiophene-2-carboxamide] |
| 0.061 | 0.042 | 0.17 | CS(=O)(=O)Nc1ccc2sc(C(=O)Nc3cc(Cl)cc(-c4ccsc4)c3)cc2c1 [Example 332, N-(3-chloro-5-(thiophen-3-yl)phenyl)-5-(methylsulfonamido)benzo[b]thiophene-2-carboxamide] |
| 0.059 | 0.025 | 0.036 | Cc1ccc(Oc2cc(Cl)cc(NC(=O)c3cc4cc(NS(C)(=O)=O)c(Cl)cc4s3)c2)s1 [Example 487, 6-chloro-N-(3-chloro-5-((5-methylthiophen-2-yl)oxy)phenyl)-5-(methylsulfonamido)benzo[b]thiophene-2-carboxamide] |
| 0.009 | 0.026 | 0.012 | CN(c1ccc(Cl)cc1)c1cc(Cl)cc(NC(=O)c2cc3cc(NS(C)(=O)=O)c(Cl)cc3s2)c1 [Example 441, 6-chloro-N-(3-chloro-5-((4-chlorophenyl)(methyl)amino)phenyl)-5-(methylsulfonamido)benzo[b]thiophene-2-carboxamide] |
